# Assays:
# Mtb proteasome = biological target: T1, Mtb proteasome (Mycobacterium tuberculosis, UniProt P9WHT9); assay: biochemical; assay type: biochemical; details: for IC50: 50 µM Suc-LLVY-AMC, 30 min preincubation, 37 °C, triplicate, read-out: IC50 against the Mtb proteasome; for Hill Coefficient: from IC50 curve, Mtb proteasome
# T1 construct: made in house
# ß5i of IP = details: cited from earlier work; for RA at 10 µM against ß5i of IP: residual activity of β5i in the presence of 10 μM compound; for Ki: read-out: Ki against ß5i of IP; for IC50: read-out: IC50 against ß5i of IP
# T1 sequence (P9WHT9 whole entry, looked up): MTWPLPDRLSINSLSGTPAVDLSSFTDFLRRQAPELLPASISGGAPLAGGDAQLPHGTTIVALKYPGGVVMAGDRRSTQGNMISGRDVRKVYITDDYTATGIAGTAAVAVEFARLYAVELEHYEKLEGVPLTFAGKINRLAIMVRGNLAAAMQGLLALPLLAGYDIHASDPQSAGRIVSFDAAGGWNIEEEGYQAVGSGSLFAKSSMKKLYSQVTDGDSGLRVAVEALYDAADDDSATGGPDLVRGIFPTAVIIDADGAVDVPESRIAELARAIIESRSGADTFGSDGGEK
SMILES,RA at 100 µM against Mtb (Mtb proteasome) [%],RA at 10 µM against ß5i of IP (ß5i of IP) [%],also measured
Cc1c(CCC(=O)O)c(=O)oc2cc3c(cc12)C(c1ccccc1)CO3 (racemic) [Compound 91],95,94,
Cc1c(CCC(=O)ON2C(=O)CCC2=O)c(=O)oc2cc3c(cc12)C(c1ccccc1)CO3 (racemic) [Compound 92],95,36,
Cc1c(CCC(=O)O)c(=O)oc2cc3occ(-c4ccc(Br)cc4)c3cc12 [Compound 1],,,IC50 (Mtb proteasome): 39 ± 7 µM; Hill Coefficient (Mtb proteasome): 0.69; Ki (ß5i of IP): 137 µM
Cc1c(CCC(=O)O)c(=O)oc2cc3occ(-c4ccc(Cl)cc4)c3cc12 [Compound 2],,83,IC50 (Mtb proteasome): 15 ± 2 µM; Hill Coefficient (Mtb proteasome): 1.75
Cc1c(CCC(=O)O)c(=O)oc2cc3occ(-c4ccc(C(=O)O)cc4)c3cc12 [Compound 3],,53,IC50 (Mtb proteasome): 31 ± 5 µM; Hill Coefficient (Mtb proteasome): 1.22
Cc1c(CC(=O)O)c(=O)oc2cc3occ(-c4ccc(Br)cc4)c3cc12 [Compound 4],,,IC50 (Mtb proteasome): 4 ± 3 µM; Hill Coefficient (Mtb proteasome): 1.59; Ki (ß5i of IP): 12.7 µM
Cc1c(CCC(=O)O)c(=O)oc2c(C)c3occ(-c4ccc(Br)cc4)c3cc12 [Compound 5],,93,IC50 (Mtb proteasome): 17 ± 3 µM; Hill Coefficient (Mtb proteasome): 0.70
Cc1c(C(=O)O)c(=O)oc2cc3occ(-c4ccccc4)c3cc12 [Compound 6],,82,IC50 (Mtb proteasome): 2.2 ± 0.3 µM; Hill Coefficient (Mtb proteasome): 0.70
Cc1c(CCC(=O)N(C)CC#N)c(=O)oc2cc3occ(C(C)(C)C)c3cc12 [Compound 7],,100,IC50 (Mtb proteasome): 8 ± 5 µM; Hill Coefficient (Mtb proteasome): 0.42
Cc1c(CCC(=O)NCC#N)c(=O)oc2cc3occ(-c4ccccc4)c3cc12 [Compound 9],,66,IC50 (Mtb proteasome): 2 ± 2 µM; Hill Coefficient (Mtb proteasome): 2.27
Cc1cc(-c2coc3cc4oc(=O)c(CC(=O)NCC#N)c(C)c4cc23)c(C)o1 [Compound 10],,100,IC50 (Mtb proteasome): 3 ± 2 µM; Hill Coefficient (Mtb proteasome): 4.46
Cc1c(CCC(=O)ON2C(=O)CCC2=O)c(=O)oc2cc3occ(C4CCCCC4)c3cc12 [Compound 12],,,IC50 (Mtb proteasome): 5 ± 2 µM; Hill Coefficient (Mtb proteasome): 1.05; IC50 (ß5i of IP): 1.8 µM
Cc1cc(-c2coc3cc4oc(=O)c(CC(=O)ON5C(=O)CCC5=O)c(C)c4cc23)c(C)o1 [Compound 14],,,IC50 (Mtb proteasome): 9 ± 5 µM; Hill Coefficient (Mtb proteasome): 2.42; IC50 (ß5i of IP): 6.9 µM
Cc1c(CCC(=O)O)c(=O)oc2cc3occ(-c4ccccc4)c3cc12 [Compound 16],72,,inhibition of the Mtb proteasome (Mtb proteasome): did not inhibit; IC50 (ß5i of IP): 1.6 µM; Ki (ß5i of IP): 1.6 ± 0.7 µM
COc1ccc(-c2coc3cc4oc(=O)c(CCC(=O)O)c(C)c4cc23)cc1 [Compound 17],100,84,
COc1cccc(-c2coc3cc4oc(=O)c(CCC(=O)O)c(C)c4cc23)c1 [Compound 18],100,,Ki (ß5i of IP): 29.6 ± 3.9 µM
Cc1c(CCC(=O)O)c(=O)oc2cc3occ(C(C)(C)C)c3cc12 [Compound 19],95,83,
Cc1coc2cc3oc(=O)c(CCC(=O)O)c(C)c3cc12 [Compound 20],93,94,
Cc1cc(-c2coc3cc4oc(=O)c(CCC(=O)O)c(C)c4cc23)c(C)s1 [Compound 21],99,,Ki (ß5i of IP): 52.3 ± 18 µM
Cc1c(CCC(=O)O)c(=O)oc2cc3occ(-c4ccco4)c3cc12 [Compound 22],55,,Ki (ß5i of IP): 116 ± 27 µM

SMILES,RA at 100 µM against Mtb (Mtb proteasome) [%],RA at 10 µM against ß5i of IP (ß5i of IP) [%],also measured
Cc1cc(-c2coc3cc4oc(=O)c(CCC(=O)O)c(C)c4cc23)c(C)o1 [Compound 23],76,100,
Cc1c(CCC(=O)O)c(=O)oc2cc3occ(C4CCCCC4)c3cc12 [Compound 24],71,102,
Cc1c(CC(=O)O)c(=O)oc2cc3occ(-c4ccccc4)c3cc12 [Compound 25],96,,Ki (ß5i of IP): 2.4 ± 0.4 µM
COc1ccc(-c2coc3cc4oc(=O)c(CC(=O)O)c(C)c4cc23)cc1 [Compound 26],50,,Ki (ß5i of IP): 8.2 ± 0.5 µM
COc1cccc(-c2coc3cc4oc(=O)c(CC(=O)O)c(C)c4cc23)c1 [Compound 27],98,,Ki (ß5i of IP): 7 ± 0.2 µM
Cc1c(CC(=O)O)c(=O)oc2cc3occ(C(C)(C)C)c3cc12 [Compound 28],97,85,
Cc1coc2cc3oc(=O)c(CC(=O)O)c(C)c3cc12 [Compound 29],61,88,
Cc1cc(-c2coc3cc4oc(=O)c(CC(=O)O)c(C)c4cc23)c(C)s1 [Compound 30],93,,Ki (ß5i of IP): 36.5 ± 7.1 µM
Cc1c(CC(=O)O)c(=O)oc2cc3occ(-c4ccco4)c3cc12 [Compound 31],79,,Ki (ß5i of IP): 89.3 ± 2 µM
Cc1cc(-c2coc3cc4oc(=O)c(CC(=O)O)c(C)c4cc23)c(C)o1 [Compound 32],100,,Ki (ß5i of IP): 351 ± 48 µM
Cc1c(CC(=O)O)c(=O)oc2cc3occ(C4CCCCC4)c3cc12 [Compound 33],90,,Ki (ß5i of IP): 198 ± 21 µM
O=C(O)Cc1cc2cc3c(-c4ccccc4)coc3cc2oc1=O [Compound 34],54,,Ki (ß5i of IP): 3.8 ± 1.1 µM
Cc1c(CCC(=O)O)c(=O)oc2c(C)c3occ(-c4ccccc4)c3cc12 [Compound 35],100,,Ki (ß5i of IP): 43.1 ± 15 µM
COc1cccc(-c2coc3c(C)c4oc(=O)c(CCC(=O)O)c(C)c4cc23)c1 [Compound 36],87,72,
COc1ccc(-c2coc3c(C)c4oc(=O)c(CCC(=O)O)c(C)c4cc23)cc1 [Compound 37],87,87,
Cc1c(CCC(=O)O)c(=O)oc2c(C)c3occ(-c4ccc(Cl)cc4)c3cc12 [Compound 38],47,89,
Cc1c(CCC(=O)O)c(=O)oc2c(C)c3occ(-c4ccc(C(=O)O)cc4)c3cc12 [Compound 39],98,,
Cc1c(CCC(=O)N(C)CC#N)c(=O)oc2cc3occ(-c4ccccc4)c3cc12 [Compound 40],100,92,
Cc1c(CCC(=O)N(C)CC#N)c(=O)oc2cc3occ(-c4ccc(Br)cc4)c3cc12 [Compound 41],91,107,
Cc1coc2cc3oc(=O)c(CCC(=O)N(C)CC#N)c(C)c3cc12 [Compound 42],99,93,

SMILES,RA at 100 µM against Mtb (Mtb proteasome) [%],RA at 10 µM against ß5i of IP (ß5i of IP) [%],also measured
Cc1cc(-c2coc3cc4oc(=O)c(CCC(=O)N(C)CC#N)c(C)c4cc23)c(C)s1 [Compound 43],55,107,
Cc1c(CCC(=O)N(C)CC#N)c(=O)oc2cc3occ(-c4ccco4)c3cc12 [Compound 44],82,86,
Cc1c(CCC(=O)N(C)CC#N)c(=O)oc2cc3occ(C4CCCCC4)c3cc12 [Compound 45],92,111,
Cc1c(CCC(=O)NCC#N)c(=O)oc2cc3occ(-c4ccc(Br)cc4)c3cc12 [Compound 46],82,107,
Cc1coc2cc3oc(=O)c(CCC(=O)NCC#N)c(C)c3cc12 [Compound 47],95,105,
Cc1cc(-c2coc3cc4oc(=O)c(CCC(=O)NCC#N)c(C)c4cc23)c(C)s1 [Compound 48],100,109,
Cc1c(CCC(=O)NCC#N)c(=O)oc2cc3occ(-c4ccco4)c3cc12 [Compound 49],100,97,
Cc1c(CCC(=O)NCC#N)c(=O)oc2cc3occ(C4CCCCC4)c3cc12 [Compound 50],96,102,
Cc1c(CC(=O)N(C)CC#N)c(=O)oc2cc3occ(-c4ccccc4)c3cc12 [Compound 51],93,97,
Cc1c(CC(=O)N(C)CC#N)c(=O)oc2cc3occ(-c4ccc(Br)cc4)c3cc12 [Compound 52],70,86,
Cc1c(CC(=O)N(C)CC#N)c(=O)oc2cc3occ(C(C)(C)C)c3cc12 [Compound 53],97,96,
Cc1coc2cc3oc(=O)c(CC(=O)N(C)CC#N)c(C)c3cc12 [Compound 54],95,99,
Cc1cc(-c2coc3cc4oc(=O)c(CC(=O)N(C)CC#N)c(C)c4cc23)c(C)s1 [Compound 55],88,103,
Cc1c(CC(=O)N(C)CC#N)c(=O)oc2cc3occ(-c4ccco4)c3cc12 [Compound 56],53,103,
Cc1cc(-c2coc3cc4oc(=O)c(CC(=O)N(C)CC#N)c(C)c4cc23)c(C)o1 [Compound 57],100,96,
Cc1c(CC(=O)N(C)CC#N)c(=O)oc2cc3occ(C4CCCCC4)c3cc12 [Compound 58],100,101,
Cc1c(CC(=O)NCC#N)c(=O)oc2cc3occ(-c4ccccc4)c3cc12 [Compound 59],92,101,
Cc1coc2cc3oc(=O)c(CC(=O)NCC#N)c(C)c3cc12 [Compound 62],60,,
Cc1c(CN)c(=O)oc2cc3occ(-c4ccccc4)c3cc12 [Compound 80],55,,

# Reference: paper PMC7144120, “Psoralen Derivatives as Inhibitors of Mycobacterium tuberculosis Proteasome” (Molecules, 2020)
